In US20070122422A1, “Sodium-independent small neutral amino acid transporter transporting L- and D- amino acids” (Japan Science and Technology Corporation, priority 2000, published 2007):

Tests used:
Type in all cases: cell-based
[1] = molecular target: T1, asc-1 of mouse (co-expressed with 4F2hc of mouse) (Mus musculus, UniProt P63115); assay: Michaelis-Menten kinetic test of substrate incorporation by Xenopus oocytes co-expressing asc-1 and 4F2hc; conditions: ratio to the Vmax value for alanine (defined as 1.00)
T1 construct: expressed in transfected cells; host or cells: Xenopus oocytes injected with cRNA
T1 sequence (P63115 1-530): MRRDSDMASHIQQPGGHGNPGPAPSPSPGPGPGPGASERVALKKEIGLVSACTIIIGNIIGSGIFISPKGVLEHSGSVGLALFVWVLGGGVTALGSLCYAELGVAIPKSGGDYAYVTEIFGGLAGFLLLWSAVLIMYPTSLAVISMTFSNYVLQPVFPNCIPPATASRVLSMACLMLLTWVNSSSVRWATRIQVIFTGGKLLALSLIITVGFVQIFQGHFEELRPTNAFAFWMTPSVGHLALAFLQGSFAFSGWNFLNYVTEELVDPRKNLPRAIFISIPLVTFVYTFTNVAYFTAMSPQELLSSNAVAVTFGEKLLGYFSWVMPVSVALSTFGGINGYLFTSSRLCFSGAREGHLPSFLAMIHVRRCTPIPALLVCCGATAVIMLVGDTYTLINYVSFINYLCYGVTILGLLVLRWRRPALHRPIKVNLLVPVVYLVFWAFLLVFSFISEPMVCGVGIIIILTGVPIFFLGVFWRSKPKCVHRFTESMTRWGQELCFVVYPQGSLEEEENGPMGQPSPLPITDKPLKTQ
T1 sequence (P10852 1-526 partner): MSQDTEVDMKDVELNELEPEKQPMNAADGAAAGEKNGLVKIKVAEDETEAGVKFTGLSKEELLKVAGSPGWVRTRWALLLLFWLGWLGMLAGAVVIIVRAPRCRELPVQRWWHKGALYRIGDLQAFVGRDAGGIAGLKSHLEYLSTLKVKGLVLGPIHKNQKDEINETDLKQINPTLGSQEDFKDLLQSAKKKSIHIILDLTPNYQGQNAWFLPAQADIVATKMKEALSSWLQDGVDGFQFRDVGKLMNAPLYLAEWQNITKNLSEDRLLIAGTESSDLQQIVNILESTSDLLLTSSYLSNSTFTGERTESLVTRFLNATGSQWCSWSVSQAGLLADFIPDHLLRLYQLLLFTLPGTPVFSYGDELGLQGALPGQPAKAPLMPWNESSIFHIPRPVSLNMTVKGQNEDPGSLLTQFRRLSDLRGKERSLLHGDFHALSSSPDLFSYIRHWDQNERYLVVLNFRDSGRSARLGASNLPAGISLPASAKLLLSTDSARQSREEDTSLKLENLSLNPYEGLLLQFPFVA
Method: (§1) Into oocytes were injected 12 ng of asc-1 gene cRNA of mouse, 13 ng of 4F2hc gene cRNA of mouse or 12 ng asc-1 gene cRNA of mouse/13 ng of 4F2hc gene cRNA of mouse to express followed by incubating for 3 days. […] Thus, the oocytes were allowed to stand for 30 minutes in a Na^+-free uptake solution [100 mM choline chloride, 2 mM potassium chloride, 1.8 mM calcium chloride, 1 mM magnesium chloride, 5 mM HEPES; pH 7.4] containing ^14C-alanine (100 μM) as a substrate and the rate of the substrate incorporated into the cells was measured by way of counting the radioactivity incorporated thereinto.
A Michaelis-Menten kinetic test was carried out for a sodium-independent small neutral amino acid transporter asc-1 which transports L- and D-amino acids. By checking the changes in the rate of incorporation of alanine due to the difference in concentration of the alanine substrate, the Michaelis-Menten kinetic test of asc-1 was carried out.
An experiment for the incorporation of alanine was carried out according to the method mentioned in the above Example 2(1) using the oocytes into which both asc-1 gene cRNA of mouse and 4F2hc gene cRNA of mouse were injected.
With regard to amino acids other than alanine which were used as substrates, a Michaelis-Menten kinetic was carried out as well in the same manner whereupon Km values and Vmax values were calculated. Each Vmax value in Table 1 was shown in terms of the ratio when the Vmax value of alanine was defined as 1.00.

[2] = molecular target: T1, asc-1 of mouse (co-expressed with 4F2hc of mouse); assay: Inhibition of 14C-alanine incorporation by added amino acids and analogs in oocytes co-expressing asc-1 and 4F2hc; conditions: 14C-alanine 50 μM; 5 mM non-labeled compound; Na+-free uptake solution
Method: as §1
In an experiment of incorporation of alanine by oocytes into which both asc-1 gene cRNA of mouse and 4F2hc gene cRNA of mouse were injected, influence of addition of various amino acid and analogs thereof was investigated.
In an experiment of incorporation of alanine, a method according to that mentioned in the above Example 2(1) was carried out using oocytes into which both asc-1 gene cRNA of mouse and 4F2hc gene cRNA of mouse were injected. Here, a Na^+-free uptake solution was used and incorporation of ^14C-alanine (50 μM) was measured in the presence and absence of 5 mM of various compounds (non-labeled).

[3] = molecular target: T1, asc-1 of mouse (co-expressed with 4F2hc of mouse); assay: Incorporation of radiolabeled amino acids and analogs by oocytes co-expressing asc-1 and 4F2hc; conditions: for incorporation into the oocytes as substrate: radiolabeled substrate, oocytes expressing both asc-1 and 4F2hc, Na+-free uptake solution; for transport by asc-1 (affinity in words): summary statement, asc-1 co-existing with 4F2hc
Method: Incorporation of alanine when asc-1 gene cRNA of mouse was solely expressed in oocytes of Xenopus and when asc-1 gene cRNA of mouse and 4F2hc gene cRNA of mouse were expressed in oocytes of Xenopus together was compared.
as §1
In an experiment of incorporation of alanine by oocytes into which both asc-1 gene cRNA and 4F2hc gene cRNA of mouse were injected together, influence of the salt added to the medium was investigated.
The experiment of incorporation of alanine was carried out in accordance with the method mentioned in the above Example 2(1) using oocytes into which both asc-1 gene cRNA and 4F2hc gene cRNA of mouse were injected together. When the influence of sodium ion was checked however, a standard uptake solution (where 100 mM choline chloride was substituted with 100 mM sodium chloride) was used in place of the Na^+-free uptake solution as the uptake solution. When the influence of chlorine ion was checked, a gluconic acid uptake solution (where 100 mM sodium chloride was substituted with 100 mM sodium gluconate) was used in place of the standard uptake solution.
Incorporation by asc-1 was investigated using various amino acids and analogs thereof as substrates. Experiment for incorporation of various amino acids and analogs thereof was carried out according to the method mentioned in the above Example 2(1) using oocytes into which asc-1 gene cRNA of mouse and 4F2hc gene cRNA of mouse were injected together. With regard to the substrates however, various compounds labeled with radioactivity were used in place of ^14C-alanine.
Influence of pH was checked in an experiment for incorporation of alanine by oocytes into which both asc-1 gene cRNA and 4F2hc gene cRNA of mouse were injected together. With regard to an experiment for incorporation of alanine, the method according to that mentioned in the above Example 2 (1) was carried out using oocytes into which both asc-1 gene cRNA of mouse and 4F2hc gene cRNA of mouse were injected together.

[4] = molecular target: T1, asc-1 of mouse (co-expressed with 4F2hc of mouse); assay: Release of preloaded 14C-alanine from oocytes co-expressing asc-1 and 4F2hc on extracellular addition of compound; conditions: 100 μM compound added to Na+-free uptake solution; room temperature
Method: (§2) Release of a preloaded ^14C-alanine mediated by asc-1 was checked in the oocytes into which both asc-1 gene cRNA and 4F2hc gene cRNA of mouse were injected together. ^14C-Alanine (−3nCi) of 100 μM in an amount of 100 nl was injected into the oocytes into which both asc-1 gene cRNA and 4F2hc gene cRNA of mouse were injected together, washed with an ice-cooled Na^+-free uptake solution containing no alanine and transferred to a Na^+-free uptake solution to which alanine (100 μM) was added or not added at room temperature (18° C.-22° C.) and the amount of ^14C-alanine released outside the cells was measured.
In oocytes into which cRNA of asc-1 gene and cRNA of 4F2hc gene of mouse were injected together, release of preloaded ^14C-alanine mediated by asc-1 was investigated whereupon it was checked whether the compound which inhibited the incorporation of ^14C-alanine mediated by asc-1 was a substrate of asc-1.
as §2, with “^14C-Alanine” for “Release of a preloaded ^14C-alanine mediated by asc-1 was checked in the oocytes into which both asc-1 gene cRNA and 4F2hc gene cRNA of mouse were injected together. ^14C-Alanine”, “which amino acid or amino acid analog” for “which alanine”
Black bars in FIG. 18 are the case where there were used oocytes into which cRNA of mouse asc-1 gene and cRNA of mouse 4F2hc gene were injected while white bars are the case where there were used oocytes into which water was injected instead of cRNA as a control.

[5] = molecular target: T2, intracellular substrate-binding site of asc-1 of mouse (Mus musculus, UniProt P63115); assay: Release of injected 14C-amino acid from oocytes co-expressing asc-1 and 4F2hc on extracellular alanine; conditions: alanine 100 μM added to Na+-free uptake solution
T2 construct: expressed in transfected cells; host or cells: Xenopus oocytes injected with cRNA
T2 sequence (P63115 1-530): T1 sequence (P63115 1-530)
T2 sequence (P10852 1-526 partner): T1 sequence (P10852 1-526 partner)
Method: In oocytes into which cRNA of asc-1 gene and cRNA of 4F2hc gene of mouse were injected together, release of preloaded ^14C-amino acid mediated by asc-1 was checked whereby the substrate selectivity of intracellular substrate-binding site of asc-1 was checked.
^14C-Amino acid (˜3nCi) of 100 μM in an amount of 100 nl was injected into the oocytes into which both asc-1 gene cRNA and 4F2hc gene cRNA of mouse were injected together, washed with an ice-cooled Na^+-free uptake solution containing no alanine and transferred to a Na^+-free uptake solution to which alanine (100 μM) was added or not added at room temperature (18° C.-22° C.) and the amount of ^14C-amino acid released outside the cells was measured.
Black bars in FIG. 21 show the case where alanine was added to a Na^+-free uptake solution while bars with oblique lines show the case where alanine was not added to a Na^+-free uptake solution.

| Compound | Vmax [1] | inhibition of incorporation of 14C-alanine mediated by asc-1 [2] | incorporation into the oocytes as substrate [3] | transport by asc-1 (affinity in words) [3] | increase in the release of preloaded 14C-alanine [4] | release of injected 14C-labeled amino acid by extracellular alanine [5] |
| --- | --- | --- | --- | --- | --- | --- |
| CC(C)(N)C(=O)O [AIB, α-aminoisobutyric acid] | 0.81 | inhibited | big incorporation | transports | significant increase | – |
| NC1(C(=O)O)CC2CCC1C2 (stereo not drawn) [BCH, 2-amino-2-norbornane-carboxylic acid] | – | did not affect | – | – | – | – |
| C[C@@H](N)C(=O)O [D-Alanine] | 0.86 | strongly inhibited | big incorporation | transports | significant increase | – |
| N[C@H](CO)C(=O)O [D-Serine] | 1.22 | strongly inhibited | big incorporation | highly affinitive | significant increase | – |
| C[C@H](O)[C@@H](N)C(=O)O [D-Threonine] | – | – | – | – | significant increase | – |
| N[C@H](CS)C(=O)O [D-cysteine] | – | mediumly inhibited | – | transports | significant increase | – |
| NCC(=O)O [Glycine] | 0.89 | – | – | – | high increase | increase in release |
| N[C@@H](CS)C(=O)O [L-Cysteine] | 0.82 | particularly strongly inhibited | big incorporation | highly affinitive | – | increase in release |
| N[C@@H](Cc1c[nH]cn1)C(=O)O [L-Histidine] | 0.79 | – | – | lowly affinitive | – | – |
| CC[C@H](C)[C@H](N)C(=O)O [L-Isoleucine] | 1.33 | – | – | lowly affinitive | – | – |
| CSCC[C@H](N)C(=O)O [L-Methionine] | 1.15 | – | – | lowly affinitive | medium increase | – |
| N[C@@H](Cc1ccccc1)C(=O)O [L-Phenylalanine] | 1.09 | – | – | lowly affinitive | – | – |
| C[C@@H](O)[C@H](N)C(=O)O [L-Threonine] | 0.86 | – | – | – | high increase | increase in release |
| CC(C)[C@H](N)C(=O)O [L-Valine] | 1.17 | – | – | lowly affinitive | medium increase | – |
| CN[C@@H](C)C(=O)O [N-methylalanine] | – | did not affect | – | – | – | – |
| COC(=O)[C@H](C)N [alanine methyl ester] | – | inhibited | – | transports | significant increase | – |
| CNCC(=O)O [sarcosine] | – | did not affect | – | – | – | – |
| NCCC(=O)O [β-Alanine] | 0.92 | inhibited | big incorporation | transports | significant increase | – |
| γ-aminoisobutyric acid | – | did not affect | – | – | – | – |
